Data: publication PMC11748363, “Antimicrobial and Antiproliferative Properties of 2‐Phenyl‐N‐(Pyridin‐2‐yl)acetamides” (Chemical Biology & Drug Design, 2025)
In brackets after ≈: the same amount, converted by molar mass. Like-named read-outs stand apart in the source and are kept apart here.

Experiments:
[1] = tested on: Klebsiella pneumoniae CCM 4415, ATCC 10031; assay: Antibacterial microdilution broth MIC, KP
[2] = tested on: Enterococcus faecalis CCM 4224, ATCC 29212; assay: Antibacterial microdilution broth MIC, EF; assay type: cell-based
[3] = tested on: Candida tropicalis CCM 8264, ATCC 750; assay: Antifungal microdilution broth MIC, CT
[4] = tested on: Trichophyton interdigitale CCM 8377, ATCC 9533; assay: Antifungal microdilution broth MIC, TI; conditions: Trichophyton interdigitale
[5] = tested on: Mycobacterium tuberculosis H37Ra; assay: Antimycobacterial microdilution broth MIC (resazurin), Mtb H37Ra; assay type: cell-based; conditions: for MIC: Mycobacterium tuberculosis, H37RA, read-out: MIC Mtb H37Ra
[6] = tested on: Pseudomonas aeruginosa CCM 3955, ATCC 27853; assay: Antibacterial microdilution broth MIC, PA; assay type: cell-based
[7] = tested on: Candida parapsilosis CCM 8260, ATCC 22019; assay: Antifungal microdilution broth MIC, CP; conditions: Lodderomyces parapsilosis
[8] = tested on: Mycolicibacterium aurum DSM 43999; assay: Antimycobacterial microdilution broth MIC (resazurin), M. aurum; assay type: cell-based; conditions: DSM43999, read-out: MIC M. aurum
[9] = tested on: HepG2 cell line; assay: Cytotoxicity CellTiter 96, HepG2; assay type: cell-based, human; conditions: Homo sapiens, HepG2, 24 h, 24 h incubation; ^c compound precipitated in the testing medium; ^d over the limit of tested concentrations
Protocol: The cytotoxicity of final compounds was determined in human hepatocellular carcinoma cell line HepG2.
Cytotoxicity determination
Human hepatocellular liver carcinoma cell line HepG2 purchased from Health Protection Agency Culture Collections (ECACC, Salisbury, UK) was cultured in MEM (Minimum Essentials Eagle Medium, Sigma–Aldrich) supplemented with 10% fetal bovine serum (PAA Laboratories, Pasching, Austria), 1% L-glutamine solution (Sigma–Aldrich) and non-essential amino acid solution (Sigma–Aldrich) in a humidified atmosphere containing 5% CO2 at 37 °C. For subculturing, the cells were harvested after trypsin/EDTA (Sigma–Aldrich) treatment at 37 °C. To evaluate cytotoxicity, the cells treated with the tested substances were used as experimental groups whereas untreated HepG2 cells served as controls. The cells were seeded in density 10,000 cells per well in a 96 well plate. The next day the cells were treated with each of the tested substances dissolved in DMSO. The tested substances were
in triplicates according to their solubility. Simultaneously, the controls representing 100% cell viability, 0% cell viability (the cells treated with 10% DMSO), no cell control and vehiculum controls were also
the reagent from the kit CellTiter 96 AQueous One Solution Cell Proliferation Assay (CellTiter 96; PROMEGA, Fitchburg, USA) was added. After 2h incubation at 37 °C, absorbance of samples was recorded at 490 nm (TECAN, Infinita M200, Austria). A standard toxicological parameter IC50 was calculated by nonlinear regression from a semilogarithmic plot of incubation concentration versus percentage of absorbance relative to untre ated controls using GraphPad Prism 8 software.

[10] = tested on: Mycolicibacterium smegmatis DSM 43465; assay: Antimycobacterial microdilution broth MIC (resazurin), M. smegmatis; assay type: cell-based; conditions: DSM43465, read-out: MIC M. smegmatis
[11] = tested on: Staphylococcus epidermidis CCM 4418, ATCC 12228; assay: Antibacterial microdilution broth MIC, SE; assay type: cell-based
[12] = tested on: Aspergillus fumigatus ATCC 204305; assay: Antifungal microdilution broth MIC, AF
[13] = tested on: Staphylococcus aureus CCM 4223, ATCC 29213; assay: Antibacterial microdilution broth MIC, SA; assay type: cell-based; conditions: Staphylococcus aureus
[14] = tested on: Lichtheimia corymbifera CCM 8077; assay: Antifungal microdilution broth MIC, LC
[15] = tested on: Escherichia coli CCM 3954, ATCC 25922; assay: Antibacterial microdilution broth MIC, EC; assay type: cell-based
[16] = tested on: Acinetobacter baumannii DSM 30007, ATCC 19606; assay: Antibacterial microdilution broth MIC, ACI; assay type: cell-based
[17] = tested on: Candida albicans CCM 8320, ATCC 24433; assay: Antifungal microdilution broth MIC, CA
[18] = tested on: Staphylococcus aureus subsp. aureus CCM 4750, ATCC 43300 (MRSA); assay: Antibacterial microdilution broth MIC, MRSA; assay type: cell-based; conditions: Staphylococcus aureus
[19] = tested on: Aspergillus flavus CCM 8363; assay: Antifungal microdilution broth MIC, AFla
[20] = tested on: Candida krusei CCM 8271, ATCC 6258; assay: Antifungal microdilution broth MIC, CK; conditions: Pichia kudriavzevii
[21] = ATCC204305, 24 h, read-out: MIC AF 24h
[22] = ATCC204305, 48 h, read-out: MIC AF 48h
[23] = CCM8077, 24 h, read-out: MIC LC 24h
[24] = CCM8077, 48 h, read-out: MIC LC 48h
[25] = CCM8363, 24 h, read-out: MIC AFla 24h
[26] = CCM8363, 48 h, read-out: MIC AFla 48h

Row | Compound | MIC KP 24h [1] [µM] | MIC KP 48h [1] [µM] | MIC ([2]; 24 h, read-out: MIC EF 24h) [µM] | MIC ([2]; 48 h, read-out: MIC EF 48h) [µM] | MIC ([3]; 24 h, read-out: MIC CT 24h) [µM] | MIC ([3]; 48 h, read-out: MIC CT 48h) [µM] | MIC ([4]; 72 h, read-out: MIC TI 72h) [µM] | MIC ([4]; 120 h, read-out: MIC TI 120h) [µM] | MIC ([5]; Calculated from MIC (μg/mL)) [µM] | MIC [5] [µg/mL] | MIC ([6]; 24 h, read-out: MIC PA 24h) [µM] | MIC ([6]; 48 h, read-out: MIC PA 48h) [µM] | MIC ([7]; 24 h, read-out: MIC CP 24h) [µM] | MIC ([7]; 48 h, read-out: MIC CP 48h) [µM] | MIC [8] [µg/mL] | IC50 [9] [µM] | MIC [10] [µg/mL] | MIC ([11]; 24 h, read-out: MIC SE 24h) [µM] | MIC ([11]; 48 h, read-out: MIC SE 48h) [µM] | MIC [12, 21] [µM] | also measured
1 | COc1ccc(CC(=O)Nc2ccc(Cl)cn2)cc1 [Compound 11, 2-(4-methoxyphenyl)-N-(5-chloropyridin-2-yl)acetamide] | > 500 | > 500 | > 500 | > 500 | > 500 | > 500 | > 500 | > 500 | > 1800 | > 500 | > 500 | > 500 | > 500 | > 500 | > 500 | 399 | > 500 | > 500 | > 500 | > 500 | MIC [12, 22]: > 500 µM; MIC ([13]; 24 h, read-out: MIC SA 24h): 250 µM (≈ 69.2 µg/mL); MIC ([13]; 48 h, read-out: MIC SA 48h): 500 µM (≈ 138 µg/mL); MIC [14, 23]: > 500 µM; MIC [14, 24]: > 500 µM; MIC ([15]; 24 h, read-out: MIC EC 24h): > 500 µM; MIC ([15]; 48 h, read-out: MIC EC 48h): > 500 µM; MIC ([16]; 24 h, read-out: MIC ACI 24h): > 500 µM; MIC ([16]; 48 h, read-out: MIC ACI 48h): > 500 µM; MIC ([17]; 24 h, read-out: MIC CA 24h): > 500 µM; MIC ([17]; 48 h, read-out: MIC CA 48h): > 500 µM; MIC ([18]; 24 h, read-out: MIC MRSA 24h): > 500 µM; MIC ([18]; 48 h, read-out: MIC MRSA 48h): > 500 µM; MIC [19, 25]: > 500 µM; MIC [19, 26]: > 500 µM; MIC ([20]; 24 h, read-out: MIC CK 24h): > 500 µM; MIC ([20]; 48 h, read-out: MIC CK 48h): > 500 µM
2 | O=C(Cc1ccc(C(F)(F)F)cc1)Nc1ccccn1 [Compound 28] | > 500 | > 500 | > 500 | > 500 | > 500 | > 500 | > 500 | > 500 | 112 | 31.2 | > 500 | > 500 | > 500 | > 500 | > 500 | 408 | > 500 | > 500 | > 500 | > 500 | SI (selectivity index) ([5]; SI = HepG2 IC50 (μM)/MIC MtbH37Ra (μM), calculated for compounds with MIC ≤ 31.25 μg/mL): 3.7; MIC [12, 22]: > 500 µM; MIC ([13]; 24 h, read-out: MIC SA 24h): > 500 µM; MIC ([13]; 48 h, read-out: MIC SA 48h): > 500 µM; MIC [14, 23]: > 500 µM; MIC [14, 24]: > 500 µM; MIC ([15]; 24 h, read-out: MIC EC 24h): > 500 µM; MIC ([15]; 48 h, read-out: MIC EC 48h): > 500 µM; MIC ([16]; 24 h, read-out: MIC ACI 24h): > 500 µM; MIC ([16]; 48 h, read-out: MIC ACI 48h): > 500 µM; MIC ([17]; 24 h, read-out: MIC CA 24h): > 500 µM; MIC ([17]; 48 h, read-out: MIC CA 48h): > 500 µM; MIC ([18]; 24 h, read-out: MIC MRSA 24h): > 500 µM; MIC ([18]; 48 h, read-out: MIC MRSA 48h): > 500 µM; MIC [19, 25]: > 500 µM; MIC [19, 26]: > 500 µM; MIC ([20]; 24 h, read-out: MIC CK 24h): > 500 µM; MIC ([20]; 48 h, read-out: MIC CK 48h): > 500 µM
3 | O=C(Cc1ccccc1Cl)Nc1ccc(Cl)cn1 [Compound 14, 2-(2-chlorophenyl)-N-(5-chloropyridin-2-yl)acetamide] | > 500 | > 500 | > 500 | > 500 | > 500 | > 500 | > 500 | > 500 | > 1780 | > 500 | > 500 | > 500 | > 500 | > 500 | > 500 | > 50 | > 500 | > 500 | > 500 | > 500 | MIC [12, 22]: > 500 µM; MIC ([13]; 24 h, read-out: MIC SA 24h): > 500 µM; MIC ([13]; 48 h, read-out: MIC SA 48h): > 500 µM; MIC [14, 23]: > 500 µM; MIC [14, 24]: > 500 µM; MIC ([15]; 24 h, read-out: MIC EC 24h): > 500 µM; MIC ([15]; 48 h, read-out: MIC EC 48h): > 500 µM; MIC ([16]; 24 h, read-out: MIC ACI 24h): > 500 µM; MIC ([16]; 48 h, read-out: MIC ACI 48h): > 500 µM; MIC ([17]; 24 h, read-out: MIC CA 24h): > 500 µM; MIC ([17]; 48 h, read-out: MIC CA 48h): > 500 µM; MIC ([18]; 24 h, read-out: MIC MRSA 24h): > 500 µM; MIC ([18]; 48 h, read-out: MIC MRSA 48h): > 500 µM; MIC [19, 25]: > 500 µM; MIC [19, 26]: > 500 µM; MIC ([20]; 24 h, read-out: MIC CK 24h): > 500 µM; MIC ([20]; 48 h, read-out: MIC CK 48h): > 500 µM
